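1) Cells in 96-well plates. 2) Compound, 48 h, 5 concentrations. 3) Linear interpolation between surrounding doses. 4) Unreached endpoint = highest concentration. GI50: concentration for 50% inhibition of growth.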 Calls of active or inactive are those of the source. Cut-off read from the data, not from the text of the source: active = GI50 up to about 1.1 µM and inactive = higher.
Tests used:
Test in all cases: DTP human tumour cell line panel, 48 h
A549 = tested on: A549
ACHN = tested on: ACHN
CCRF-CEM = tested on: CCRF-CEM
HCT-116 = tested on: HCT-116
HL-60 = tested on: HL-60
HT-29 = tested on: HT-29
IGROV-1 = tested on: IGROV-1
K562 = tested on: K562
MDA-MB-435 = tested on: MDA-MB-435
MOLT-4 = tested on: MOLT-4
NCI-H23 = tested on: NCI-H23
OVCAR-8 = tested on: OVCAR-8
SK-MEL-28 = tested on: SK-MEL-28
SK-MEL-2 = tested on: SK-MEL-2
SK-MEL-5 = tested on: SK-MEL-5
SR = tested on: SR
SW-620 = tested on: SW-620
U-251 = tested on: U-251
UACC-257 = tested on: UACC-257
UACC-62 = tested on: UACC-62

Measured: GI50

O/N=C\c1cc(O)c(O)c(/C=N/O)c1
inactive: A549 25.2 µM | ACHN 24.2 µM | CCRF-CEM 7.66 µM | HCT-116 33.8 µM | HL-60 14.1 µM | HT-29 59.3 µM | IGROV-1 41.4 µM | K562 36 µM | MDA-MB-435 38.8 µM | MOLT-4 21.4 µM | NCI-H23 71 µM | OVCAR-8 29 µM | SK-MEL-28 > 100 µM | SK-MEL-2 67.9 µM | SK-MEL-5 33.2 µM | SR 11 µM | SW-620 39.9 µM | U-251 39 µM | UACC-257 > 100 µM | UACC-62 38.5 µM

CC(=O)C(CN1CCCCC1)C(c1ccccc1)c1c(O)c2ccccc2oc1=O (stereo not given)
inactive: A549 > 100 µM | ACHN > 100 µM | CCRF-CEM > 100 µM | HCT-116 > 100 µM | HL-60 59.4 µM | HT-29 > 100 µM | IGROV-1 > 100 µM | K562 > 100 µM | MDA-MB-435 > 100 µM | MOLT-4 > 100 µM | NCI-H23 > 100 µM | OVCAR-8 > 100 µM | SK-MEL-28 > 100 µM | SK-MEL-2 > 100 µM | SK-MEL-5 > 100 µM | SR > 100 µM | SW-620 > 100 µM | U-251 > 100 µM | UACC-257 > 100 µM | UACC-62 > 100 µM
